Entries after “also recorded” stand apart in the source; their conditions may differ.
What was measured:
pituitary tumors = details: cited from earlier work
glucocorticoid receptor = glucocorticoid receptor (Homo sapiens, UniProt P04150); details: HepG2 cells; cited from earlier work
pituitary macroadenoma = experiment: MRI measurement of pituitary tumor size in Cushing's Disease patients given relacorilant; type: in vivo, human
Excerpt: The relacorilant administration disclosed herein can reduce tumor size and confer beneficial clinical outcomes to patients having a pituitary tumor. Methods for measuring the size of a pituitary tumor are well-known to skilled artisans in the field. For example, magnetic resonance imaging (MRI) and other imaging methods may be used to detect tumor shrinkage. Other methods for determining the effect of cancer therapy on tumor size are also known in the art, e.g., as described in the Response Evaluation Criteria in Solid Tumors (“RECIST”) guidelines, discussed, for example, in Chalian et al., Radiographics 31(7):2093-2105 (2011), and available at “protocolDevelopment/docs/recist_guideline.pdf” of the website “ctep.cancer.gov”.
Measuring tumor size is typically achieved by imaging-based techniques, including magnetic resonance imaging (MRI), computed tomography (CT), positron-emission tomography (PET) and other techniques. For example, MRI, CT, and PET scans can provide accurate and reliable anatomic information not only about tumor shrinkage or growth but also progression of disease by identifying either growth in existing lesions or the development of new lesions or tumor metastasis. Tumor size, including a reduction in tumor size, may be determined by measuring a linear dimension of a tumor (measuring may be accomplished, for example, by counting pixels on a digital image, by measuring a distance on a printed image or from an image projected onto a screen); by measuring two different linear dimensions of a tumor; by measuring three, or more, different linear dimensions of a tumor; by calculating (or estimating, based on measurements) a cross-sectional area of a tumor; by calculating (or estimating, based on measurements) a volume of a tumor; or by other means known in the art. […]

[1] = Clinical studies of relacorilant in patients with endogenous hypercortisolism; type: in vivo, human
Excerpt: The following examples show the results of relacorilant administration to patients suffering from pituitary tumors.

progesterone receptor = progesterone receptor (Homo sapiens, UniProt P06401); details: cited from earlier work
androgen receptor = androgen receptor (Homo sapiens, UniProt P10275); details: cited from earlier work
[2] = target: T1, mineralocorticoid receptor (Homo sapiens, UniProt P08235); details: cited from earlier work
T1 sequence (P08235 1-984): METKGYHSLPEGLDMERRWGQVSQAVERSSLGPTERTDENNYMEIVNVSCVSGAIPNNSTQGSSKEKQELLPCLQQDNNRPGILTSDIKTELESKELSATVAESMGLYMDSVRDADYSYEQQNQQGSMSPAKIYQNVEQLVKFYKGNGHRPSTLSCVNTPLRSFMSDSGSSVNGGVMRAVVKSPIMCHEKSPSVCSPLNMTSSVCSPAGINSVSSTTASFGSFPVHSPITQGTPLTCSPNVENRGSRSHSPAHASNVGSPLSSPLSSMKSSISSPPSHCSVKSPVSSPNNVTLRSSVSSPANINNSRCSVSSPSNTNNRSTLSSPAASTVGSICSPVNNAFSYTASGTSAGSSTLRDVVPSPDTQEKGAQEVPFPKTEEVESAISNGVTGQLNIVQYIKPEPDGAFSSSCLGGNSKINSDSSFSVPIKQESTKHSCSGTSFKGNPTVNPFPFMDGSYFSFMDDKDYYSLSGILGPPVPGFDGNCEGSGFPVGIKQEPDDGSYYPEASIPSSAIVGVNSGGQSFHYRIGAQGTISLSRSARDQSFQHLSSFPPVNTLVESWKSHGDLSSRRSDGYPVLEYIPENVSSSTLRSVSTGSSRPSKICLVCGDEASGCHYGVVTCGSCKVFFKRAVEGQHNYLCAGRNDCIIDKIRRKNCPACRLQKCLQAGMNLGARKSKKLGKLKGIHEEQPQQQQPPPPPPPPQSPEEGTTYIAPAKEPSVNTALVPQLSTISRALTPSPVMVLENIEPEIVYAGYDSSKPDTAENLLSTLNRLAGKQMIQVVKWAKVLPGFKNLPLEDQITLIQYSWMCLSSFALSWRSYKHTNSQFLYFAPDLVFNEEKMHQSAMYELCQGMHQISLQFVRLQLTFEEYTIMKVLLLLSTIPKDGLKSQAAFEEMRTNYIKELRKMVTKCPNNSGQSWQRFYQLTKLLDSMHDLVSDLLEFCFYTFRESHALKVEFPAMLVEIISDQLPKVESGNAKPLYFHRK

estrogen receptor = details: cited from earlier work

Sequence of progesterone receptor (P06401 whole entry, species assumed): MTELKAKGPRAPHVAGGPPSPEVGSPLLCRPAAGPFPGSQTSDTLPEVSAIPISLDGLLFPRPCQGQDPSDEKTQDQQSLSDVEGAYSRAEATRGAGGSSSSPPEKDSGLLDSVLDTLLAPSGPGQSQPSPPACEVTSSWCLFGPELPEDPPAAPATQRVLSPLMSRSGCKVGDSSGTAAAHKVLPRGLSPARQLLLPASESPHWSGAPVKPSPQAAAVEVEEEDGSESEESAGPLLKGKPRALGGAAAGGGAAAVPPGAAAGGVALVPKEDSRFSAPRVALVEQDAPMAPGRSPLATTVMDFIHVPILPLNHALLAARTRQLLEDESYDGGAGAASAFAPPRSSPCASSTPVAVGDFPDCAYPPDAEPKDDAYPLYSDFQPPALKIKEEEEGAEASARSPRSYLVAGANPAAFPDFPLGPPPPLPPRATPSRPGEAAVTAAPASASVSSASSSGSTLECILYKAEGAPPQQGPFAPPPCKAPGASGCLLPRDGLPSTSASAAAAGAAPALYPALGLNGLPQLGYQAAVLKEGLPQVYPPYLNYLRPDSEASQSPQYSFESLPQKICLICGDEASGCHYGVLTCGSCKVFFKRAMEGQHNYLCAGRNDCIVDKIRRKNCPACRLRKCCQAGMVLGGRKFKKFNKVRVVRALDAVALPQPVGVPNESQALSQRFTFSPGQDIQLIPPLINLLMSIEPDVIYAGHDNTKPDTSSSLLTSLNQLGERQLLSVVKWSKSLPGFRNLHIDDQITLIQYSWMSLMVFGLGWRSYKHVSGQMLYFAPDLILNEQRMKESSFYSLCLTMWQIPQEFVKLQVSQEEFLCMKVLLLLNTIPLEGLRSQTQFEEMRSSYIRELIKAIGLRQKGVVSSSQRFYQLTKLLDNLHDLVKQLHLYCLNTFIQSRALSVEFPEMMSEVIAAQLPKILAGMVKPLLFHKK
Sequence of glucocorticoid receptor (P04150 whole entry): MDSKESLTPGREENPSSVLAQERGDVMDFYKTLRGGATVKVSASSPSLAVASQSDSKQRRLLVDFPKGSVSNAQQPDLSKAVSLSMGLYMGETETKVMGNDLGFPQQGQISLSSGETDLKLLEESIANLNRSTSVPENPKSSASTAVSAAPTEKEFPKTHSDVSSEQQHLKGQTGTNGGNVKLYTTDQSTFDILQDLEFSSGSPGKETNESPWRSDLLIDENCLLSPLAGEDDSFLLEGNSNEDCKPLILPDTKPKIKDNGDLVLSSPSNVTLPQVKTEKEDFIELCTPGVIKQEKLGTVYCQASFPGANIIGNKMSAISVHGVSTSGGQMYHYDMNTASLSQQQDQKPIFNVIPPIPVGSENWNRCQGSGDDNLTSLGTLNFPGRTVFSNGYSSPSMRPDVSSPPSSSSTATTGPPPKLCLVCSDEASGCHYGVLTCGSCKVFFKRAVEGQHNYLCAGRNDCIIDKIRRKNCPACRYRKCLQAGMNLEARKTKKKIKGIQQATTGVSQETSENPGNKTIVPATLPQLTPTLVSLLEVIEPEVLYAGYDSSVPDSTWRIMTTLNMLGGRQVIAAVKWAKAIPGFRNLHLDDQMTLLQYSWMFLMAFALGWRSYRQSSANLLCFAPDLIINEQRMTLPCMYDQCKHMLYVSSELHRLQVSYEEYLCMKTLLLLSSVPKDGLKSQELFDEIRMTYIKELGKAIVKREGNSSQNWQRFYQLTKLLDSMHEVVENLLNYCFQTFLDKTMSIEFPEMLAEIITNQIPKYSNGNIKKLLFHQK
Sequence of androgen receptor (P10275 whole entry, species assumed): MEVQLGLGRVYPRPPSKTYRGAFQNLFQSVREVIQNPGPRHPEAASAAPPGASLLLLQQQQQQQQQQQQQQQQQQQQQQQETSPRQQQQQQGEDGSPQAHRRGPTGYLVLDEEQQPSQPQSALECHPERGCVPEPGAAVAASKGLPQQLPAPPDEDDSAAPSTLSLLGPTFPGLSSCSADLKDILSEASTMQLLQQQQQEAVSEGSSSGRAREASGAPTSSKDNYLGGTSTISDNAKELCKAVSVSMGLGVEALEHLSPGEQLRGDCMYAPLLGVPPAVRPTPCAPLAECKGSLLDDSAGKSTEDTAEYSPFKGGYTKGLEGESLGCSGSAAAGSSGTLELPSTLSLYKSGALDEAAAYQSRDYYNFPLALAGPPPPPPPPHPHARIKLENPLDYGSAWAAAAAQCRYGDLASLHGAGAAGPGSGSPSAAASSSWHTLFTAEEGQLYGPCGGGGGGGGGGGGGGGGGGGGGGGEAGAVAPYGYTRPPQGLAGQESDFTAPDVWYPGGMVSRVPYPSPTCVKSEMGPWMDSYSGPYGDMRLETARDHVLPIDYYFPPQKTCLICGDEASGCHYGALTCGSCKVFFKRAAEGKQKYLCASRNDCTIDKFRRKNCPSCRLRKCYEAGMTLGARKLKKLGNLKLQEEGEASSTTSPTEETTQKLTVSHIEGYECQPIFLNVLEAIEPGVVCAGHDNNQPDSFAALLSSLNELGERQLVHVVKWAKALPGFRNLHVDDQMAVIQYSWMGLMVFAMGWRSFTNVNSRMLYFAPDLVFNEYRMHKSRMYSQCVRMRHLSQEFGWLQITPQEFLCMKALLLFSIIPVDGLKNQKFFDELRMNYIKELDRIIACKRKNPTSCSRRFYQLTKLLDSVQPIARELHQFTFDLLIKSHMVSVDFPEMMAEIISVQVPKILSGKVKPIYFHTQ

Row | Compound | tumor regression (MRI) (pituitary tumors; 17 Cushing's Disease patients with visible tumors (10 macroadenomas), mifepristone for 24 weeks) | MRI images of tumor over treatment (pituitary tumors; 17 patients, in one patient the tumor increased in size with 10 weeks of mifepristone) | effect on tyrosine aminotransferase (TAT) activity (glucocorticoid receptor) | tumor volume shrinkage (pituitary macroadenoma; Example 2 patient, following three months of relacorilant administration) | multiplication of the three post-treatment measurements (indication of tumor volume) (pituitary macroadenoma; Example 2 patient, pre-treatment measure 14,300 mm^3) | effect on pituitary tumor size (pituitary macroadenoma; two Cushing's Disease patients (both macroadenomas), three months of daily relacorilant) | tolerability ([1]; clinical studies) | glycemic and hypertension control and other manifestations of cortisol excess ([1]; patients with endogenous hypercortisolism) | effect on progesterone receptor (progesterone receptor) | effect on androgen receptor (androgen receptor) | effect on mineralocorticoid receptor [2] | effect on estrogen receptor (estrogen receptor)
1 | CC#C[C@]1(O)CC[C@H]2[C@@H]3CCC4=CC(=O)CCC4=C3[C@@H](c3ccc(N(C)C)cc3)C[C@@]21C [mifepristone] | no regression | stable in all but one patient | decreases |  |  |  |  |  |  |  |  | 
2 | Cn1cc(S(=O)(=O)N2CCC3=Cc4c(cnn4-c4ccc(F)cc4)C[C@]3(C(=O)c3cc(C(F)(F)F)ccn3)C2)cn1 [relacorilant, (R)-(1-(4-fluorophenyl)-6-((1-methyl-1H-pyrazol-4-yl)sulfonyl)-4,4a,5,6,7,8-hexahydro-1H-pyrazolo[3,4-g]isoquinolin-4a-yl)(4-(trifluoromethyl)pyridin-2-yl)methanone] |  |  |  | ~40% | 8,778 mm^3 | significant pituitary tumor shrinkage; also recorded: shrunk; also recorded: effective to reduce the size of pituitary tumors | well tolerated | significantly improved | does not significantly affect | does not significantly affect | does not significantly affect | does not significantly affect

Source: patent US12005055B2, “Methods for shrinking pituitary tumors” (Corcept Therapeutics Incorporated, priority 2018, dated 2024)
